Structures are written as SMILES. Where only a bound is given, the exact number is not on record here.

Usually EC50 stands for the midpoint of the concentration-response curve.

Sequence of Melanocortin receptor 5 (P41149 whole entry): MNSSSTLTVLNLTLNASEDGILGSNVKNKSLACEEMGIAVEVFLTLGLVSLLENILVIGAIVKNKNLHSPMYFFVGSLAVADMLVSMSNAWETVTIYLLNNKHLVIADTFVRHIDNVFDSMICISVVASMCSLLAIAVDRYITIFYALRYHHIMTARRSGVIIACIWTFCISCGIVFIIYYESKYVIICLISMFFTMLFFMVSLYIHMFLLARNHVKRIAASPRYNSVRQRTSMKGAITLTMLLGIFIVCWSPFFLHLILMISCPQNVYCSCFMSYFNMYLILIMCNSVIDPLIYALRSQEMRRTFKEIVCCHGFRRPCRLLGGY
Sequence of Melanocortin receptor 3 (P33033 whole entry): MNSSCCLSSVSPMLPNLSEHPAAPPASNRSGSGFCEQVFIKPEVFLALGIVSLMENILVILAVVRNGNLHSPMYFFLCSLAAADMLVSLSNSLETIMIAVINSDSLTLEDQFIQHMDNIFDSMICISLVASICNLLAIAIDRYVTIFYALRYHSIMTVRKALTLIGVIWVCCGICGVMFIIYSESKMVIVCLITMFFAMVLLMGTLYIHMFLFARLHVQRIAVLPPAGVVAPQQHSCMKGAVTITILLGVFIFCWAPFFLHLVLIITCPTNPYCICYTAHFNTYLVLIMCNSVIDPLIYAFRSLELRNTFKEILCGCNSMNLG
Sequence of Melanocortin receptor 4 (Mus musculus) (P56450 whole entry): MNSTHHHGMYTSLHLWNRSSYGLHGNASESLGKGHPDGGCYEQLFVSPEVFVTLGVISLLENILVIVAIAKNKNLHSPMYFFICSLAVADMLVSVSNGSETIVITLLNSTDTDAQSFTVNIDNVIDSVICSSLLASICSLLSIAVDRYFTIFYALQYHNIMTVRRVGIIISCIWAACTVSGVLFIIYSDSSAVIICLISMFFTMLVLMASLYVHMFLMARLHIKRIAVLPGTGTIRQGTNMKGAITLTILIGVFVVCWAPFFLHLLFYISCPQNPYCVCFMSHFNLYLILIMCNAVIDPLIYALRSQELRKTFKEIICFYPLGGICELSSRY
Sequence of Melanocyte-stimulating hormone receptor (Q01727 whole entry): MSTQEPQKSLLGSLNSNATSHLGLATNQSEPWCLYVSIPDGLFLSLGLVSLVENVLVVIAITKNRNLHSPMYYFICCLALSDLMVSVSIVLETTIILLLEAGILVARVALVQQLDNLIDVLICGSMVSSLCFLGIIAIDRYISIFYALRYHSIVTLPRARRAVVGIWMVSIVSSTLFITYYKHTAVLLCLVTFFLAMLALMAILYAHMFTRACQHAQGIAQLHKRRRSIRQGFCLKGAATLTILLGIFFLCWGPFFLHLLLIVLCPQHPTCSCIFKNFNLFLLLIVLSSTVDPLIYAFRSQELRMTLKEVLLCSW
Sequence of Melanocortin receptor 3 (Mus musculus) (P33033 whole entry): as the sequence (P33033 whole entry) above

The first assay addresses Melanocyte-stimulating hormone receptor (Mus musculus, UniProt Q01727). Nature of the assay: Agonist activity at mouse MC1R expressed in HEK293 cells assessed as forskolin-stimulated response by beta-galactosidase reporter gene assay. The format is functional, cell-based. For orientation: In a reporter assay the amount or activity of a reporter protein is the signal.
As to `NC(N)=NCCCC1NC(=O)c2ccc(Cl)cc2N(Cc2ccccc2)C1=O` (stereo not given), the EC50 was found to be 1.8 µM.

For `O=C1NC(Cc2ccccc2)C(=O)N(Cc2ccccc2-c2ccccc2)c2ccccc21` (stereo not given), the EC50 stood at 0.23 µM.

For `CCCN1C(=O)C(Cc2ccccc2)NC(=O)c2ccccc21` (stereo not given), the EC50 came out at 6.9 µM.

With `NCCCCC1NC(=O)c2ccc(Cl)cc2N(Cc2ccc3ccccc3c2)C1=O` (stereo not given), the EC50 came out at 3.4 µM.

`NCCCCC1NC(=O)c2ccc(Cl)cc2N(Cc2ccccc2)C1=O` (stereo not given): the EC50 came out at 0.048 µM.

In the case of `Cc1cccc2c1N(Cc1ccccc1)C(=O)C(Cc1cn(Cc3ccccc3)c3ccccc13)NC2=O` (stereo not given), the EC50 was found to be 21.6 µM.

For the compound `NC(N)=NCCCC1NC(=O)c2ccccc2N(Cc2ccccc2)C1=O` (stereo not given), the EC50 was 16.4 µM.

Turning to `O=C1NC(Cc2ccccc2)C(=O)N(Cc2ccc3ccccc3c2)c2cc(Cl)ccc21` (stereo not given), the EC50 is 4.7 µM.

In the case of `O=C1NC(Cc2c[nH]c3ccccc23)C(=O)N(Cc2ccc3ccccc3c2)c2cc(Cl)ccc21` (stereo not given), the EC50 is over 100 µM.

Turning to `O=C1NC(Cc2ccccc2)C(=O)N(Cc2ccccc2)c2ccccc21` (stereo not given), the EC50 amounted to 32.9 µM.

The next assay has as its target Melanocortin receptor 3 (Mus musculus, UniProt P33033). Nature of the assay: Agonist activity at mouse MC3R expressed in HEK293 cells assessed as forskolin-stimulated response by beta-galactosidase reporter gene assay. The format is functional, cell-based.
For `CCCCN1C(=O)C(Cc2ccccc2)NC(=O)c2ccccc21` (stereo not given), the EC50 was over 100 µM.

For the compound `NC(N)=NCCCC1NC(=O)c2ccc(Cl)cc2N(Cc2ccccc2)C1=O` (stereo not given), the EC50 was found to be 30.6 µM.

For the compound `O=C1NC(Cc2ccccc2)C(=O)N(Cc2ccccc2-c2ccccc2)c2ccccc21` (stereo not given), the EC50 was found to be 4.16 µM.

For `NCCCCC1NC(=O)c2ccc(Cl)cc2N(Cc2ccccc2)C1=O` (stereo not given), the EC50 stood at 0.32 µM.

Consider `Cc1cccc2c1N(Cc1ccccc1)C(=O)C(Cc1cn(Cc3ccccc3)c3ccccc13)NC2=O` (stereo not given), for which the EC50 was over 100 µM.

For the compound `NC(N)=NCCCC1NC(=O)c2ccccc2N(Cc2ccccc2)C1=O` (stereo not given), the EC50 was over 100 µM.

Turning to `O=C1NC(Cc2ccccc2)C(=O)N(Cc2ccc3ccccc3c2)c2cc(Cl)ccc21` (stereo not given), the 50% effective concentration (EC50) amounted to 23.3 µM.

In the case of `O=C1NC(Cc2c[nH]c3ccccc23)C(=O)N(Cc2ccc3ccccc3c2)c2cc(Cl)ccc21` (stereo not given), the EC50 is over 100 µM.

Consider `O=C1NC(Cc2ccccc2)C(=O)N(Cc2ccccc2)c2ccccc21` (stereo not given), for which the EC50 was over 100 µM.

As for `O=C1NC(Cc2c[nH]c3ccccc23)C(=O)N(Cc2ccccc2)c2ccccc21` (stereo not given), the EC50 is over 100 µM.

For another assay, the target named is Melanocortin receptor 4 (Mus musculus, UniProt P56450). Nature of the assay: Agonist activity at mouse MC4R expressed in HEK293 cells assessed as forskolin-stimulated response by beta-galactosidase reporter gene assay. It counts as functional, cell-based.
Sequence of Melanocortin receptor 4 (P56450 whole entry): as the sequence (P56450 whole entry) above
Consider `CCCCN1C(=O)C(Cc2ccccc2)NC(=O)c2ccccc21` (stereo not given), for which the EC50 is over 100 µM.

In the case of `O=C1NC(Cc2ccccc2)C(=O)N(Cc2ccccc2-c2ccccc2)c2ccccc21` (stereo not given), the EC50 was determined as 1.97 µM.

Turning to `CCCN1C(=O)C(Cc2ccccc2)NC(=O)c2ccccc21` (stereo not given), the EC50 was found to be 35 µM.

For `NCCCCC1NC(=O)c2ccc(Cl)cc2N(Cc2ccccc2)C1=O` (stereo not given), the EC50 stood at 0.24 µM.

Regarding `Cc1cccc2c1N(Cc1ccccc1)C(=O)C(Cc1cn(Cc3ccccc3)c3ccccc13)NC2=O` (stereo not given), the EC50 is over 100 µM.

In the case of `NC(N)=NCCCC1NC(=O)c2ccccc2N(Cc2ccccc2)C1=O` (stereo not given), the EC50 was over 100 µM.

In the case of `O=C1NC(Cc2c[nH]c3ccccc23)C(=O)N(Cc2ccc3ccccc3c2)c2cc(Cl)ccc21` (stereo not given), the EC50 was over 100 µM.

As to `O=C1NC(Cc2ccccc2)C(=O)N(Cc2ccccc2)c2ccccc21` (stereo not given), the EC50 was over 100 µM.

As to `O=C1NC(Cc2c[nH]c3ccccc23)C(=O)N(Cc2ccccc2)c2ccccc21` (stereo not given), the EC50 was over 100 µM.

A further assay addresses Melanocortin receptor 5 (Mus musculus, UniProt P41149). Description: Agonist activity at mouse MC5R expressed in HEK293 cells assessed as forskolin-stimulated response by beta-galactosidase reporter gene assay. It counts as functional, cell-based.
`CCCCN1C(=O)C(Cc2ccccc2)NC(=O)c2ccccc21` (stereo not given): the concentration for a half-maximal effect (EC50) is over 100 µM.

Regarding `NC(N)=NCCCC1NC(=O)c2ccc(Cl)cc2N(Cc2ccccc2)C1=O` (stereo not given), the EC50 was determined as 17 µM.

Regarding `CCCN1C(=O)C(Cc2ccccc2)NC(=O)c2ccccc21` (stereo not given), the EC50 stood at 3.27 µM.

`NCCCCC1NC(=O)c2ccc(Cl)cc2N(Cc2ccccc2)C1=O` (stereo not given): the EC50 was 0.087 µM.

In the case of `Cc1cccc2c1N(Cc1ccccc1)C(=O)C(Cc1cn(Cc3ccccc3)c3ccccc13)NC2=O` (stereo not given), the EC50 was over 100 µM.

`NC(N)=NCCCC1NC(=O)c2ccccc2N(Cc2ccccc2)C1=O` (stereo not given): the concentration for a half-maximal effect (EC50) was over 100 µM.

Take `O=C1NC(Cc2ccccc2)C(=O)N(Cc2ccc3ccccc3c2)c2cc(Cl)ccc21` (stereo not given): the EC50 was 4.35 µM.

Regarding `O=C1NC(Cc2c[nH]c3ccccc23)C(=O)N(Cc2ccc3ccccc3c2)c2cc(Cl)ccc21` (stereo not given), the EC50 is over 100 µM.

As to `O=C1NC(Cc2ccccc2)C(=O)N(Cc2ccccc2)c2ccccc21` (stereo not given), the EC50 is over 100 µM.

As to `O=C1NC(Cc2c[nH]c3ccccc23)C(=O)N(Cc2ccccc2)c2ccccc21` (stereo not given), the EC50 is over 100 µM.

In the next assay the target is Melanocyte-stimulating hormone receptor (Mus musculus) (UniProt Q01727). Description: Agonist activity at mouse MC1R expressed in HEK293 cells assessed as forskolin-stimulated response at 100 uM by beta-galactosidase reporter gene assay relative to forskolin. It counts as functional, cell-based.
Sequence of Melanocyte-stimulating hormone receptor (Mus musculus) (Q01727 whole entry, looked up): as the sequence (Q01727 whole entry) above
As to `CCCCN1C(=O)C(Cc2ccccc2)NC(=O)c2ccccc21` (stereo not given), the Activity was determined as 70%.

Regarding `O=C1NC(Cc2c[nH]c3ccccc23)C(=O)N(Cc2ccccc2)c2ccccc21` (stereo not given), the Activity was found to be 70%.

The next assay has as its target Melanocortin receptor 3 (Mus musculus) (UniProt P33033). Description: Agonist activity at mouse MC3R expressed in HEK293 cells assessed as forskolin-stimulated response at 100 uM by beta-galactosidase reporter gene assay relative to forskolin. The format is functional, cell-based.
Consider `CCCN1C(=O)C(Cc2ccccc2)NC(=O)c2ccccc21` (stereo not given), for which the Activity turned out to be 80%.

With `NCCCCC1NC(=O)c2ccc(Cl)cc2N(Cc2ccc3ccccc3c2)C1=O` (stereo not given), the Activity is 30%.

A further assay concerns the target Melanocortin receptor 4 (Mus musculus) (UniProt P56450). Description: Agonist activity at mouse MC4R expressed in HEK293 cells assessed as forskolin-stimulated response at 100 uM by beta-galactosidase reporter gene assay relative to forskolin. It counts as functional, cell-based.
For the compound `NCCCCC1NC(=O)c2ccc(Cl)cc2N(Cc2ccc3ccccc3c2)C1=O` (stereo not given), the Activity was 30%.

`N=C(N)NCCCC1NC(=O)c2ccc(Cl)cc2N(Cc2ccccc2)C1=O` (stereo not given): the Activity amounted to 60%.

As for `O=C1NC(Cc2ccccc2)C(=O)N(Cc2ccc3ccccc3c2)c2cc(Cl)ccc21` (stereo not given), the Activity is 70%.

For the next assay, the target named is Melanocortin receptor 5 (Mus musculus) (UniProt P41149). Description: Agonist activity at mouse MC5R expressed in HEK293 cells assessed as forskolin-stimulated response at 100 uM by beta-galactosidase reporter gene assay relative to forskolin. The format is functional, cell-based.
Sequence of Melanocortin receptor 5 (Mus musculus) (P41149 whole entry): as the sequence (P41149 whole entry) above
Turning to `O=C1NC(Cc2ccccc2)C(=O)N(Cc2ccccc2-c2ccccc2)c2ccccc21` (stereo not given), the Activity is 60%.

For a further assay the target is unchanged. Nature of the assay: Agonist activity at mouse MC5R expressed in HEK293 cells assessed as forskolin-stimulated response at 10 uM by beta-galactosidase reporter gene assay relative to forskolin. The format is functional, cell-based.
For `NCCCCC1NC(=O)c2ccc(Cl)cc2N(Cc2ccc3ccccc3c2)C1=O` (stereo not given), the Activity worked out at 65%.

The species named for another assay is Mus musculus. Nature of the assay: Selectivity for mouse MC1R over mouse MC3R.
Regarding `O=C1NC(Cc2ccccc2)C(=O)N(Cc2ccccc2-c2ccccc2)c2ccccc21` (stereo not given), the Ratio EC50 is 18.

For the next assay, the species on record is Mus musculus. Nature of the assay: Selectivity for mouse MC1R over mouse MC4R.
For the compound `O=C1NC(Cc2ccccc2)C(=O)N(Cc2ccccc2-c2ccccc2)c2ccccc21` (stereo not given), the Ratio EC50 was determined as 9.

These data come from ChEMBL document CHEMBL1143194, “The 1,4-benzodiazepine-2,5-dione small molecule template results in melanocortin receptor agonists with nanomolar potencies” (J Med Chem, 2008).
